From publication PMC7248705, “A Pharmacokinetic and Pharmacodynamic Evaluation of the Anti-Hepatocellular Carcinoma Compound 4-N-Carbobenzoxy-gemcitabine (Cbz-dFdC)” (Molecules, 2020)

Experiments:
[1] = tested on: HepG2 cells; experiment: Cell uptake in HepG2 cells; type: cell-based, human
Method: The cells were cultured on a 96-well plate for 4 h for each well. Then, dimethyl sulfoxide solution containing 0.1–100 mM of Cbz-dFdC and dFdC was diluted 1000 times with the medium before administration. A total of 200 uL of medium containing Cbz-dFdC and dFdC was added per well (n = 6). The medium with drugs was discarded, and 10% CCK-8 solution was added. Then, the absorbance value was read at a wavelength of 450 nm after incubation at 37 °C, for 30 min. The drug concentration of Cbz-dFdC and dFdC in cell were determined by a previously established method.

[2] = Incubation in rat intestine homogenate and S9; type: in vitro ADME
Method: (§1) The SD rats without any treatment were sacrificed after adapting to the environment. Blank blood, the liver, the kidney, and the intestine were collected and treated as described in Section 4.4. Part of the homogenate was removed for centrifugation for 20 min at 9000× g at 4 °C, and the supernatant was obtained as tissue S9. The tissue homogenate and S9 were diluted to […] after the protein concentration was determined by the BCA kit (Abcam, Cambridge, MA, USA). Each matrix consisted of 45 uL of the matrix mixed with 5 uL of the drug dissolved in normal saline solution for about 3 min, followed by incubation at 37 °C in a water bath. Then, acetonitrile containing the internal standard was added to terminate the reaction. Human tissue S9 and human CES1 recombinase purchased from the Ruid Liver Disease Research Co., Ltd. (Shanghai, China) were incubated under the same conditions. An enzyme kinetic study was obtained from the matrix following incubation at 37 °C for 30 min with 5, 10, 20, 50, 100, or 200 μM of Cbz-dFdC. We estimated the parameters and simulated curves according to the Eadie–Hofstee method.

[3] = target: T1, CES1 (Homo sapiens, UniProt P23141); experiment: Enzymatic kinetics in vitro, human CES1 recombinase; type: in vitro ADME; settings: recombinant human CES1, 37 °C, 30 min, 5–200 μM Cbz-dFdC, read-out: Clint, disappearance of Cbz-dFdC
T1 construct: purchased Ruid Liver Disease Research Co., Ltd. (Shanghai, China)
T1 sequence (P23141 18-567): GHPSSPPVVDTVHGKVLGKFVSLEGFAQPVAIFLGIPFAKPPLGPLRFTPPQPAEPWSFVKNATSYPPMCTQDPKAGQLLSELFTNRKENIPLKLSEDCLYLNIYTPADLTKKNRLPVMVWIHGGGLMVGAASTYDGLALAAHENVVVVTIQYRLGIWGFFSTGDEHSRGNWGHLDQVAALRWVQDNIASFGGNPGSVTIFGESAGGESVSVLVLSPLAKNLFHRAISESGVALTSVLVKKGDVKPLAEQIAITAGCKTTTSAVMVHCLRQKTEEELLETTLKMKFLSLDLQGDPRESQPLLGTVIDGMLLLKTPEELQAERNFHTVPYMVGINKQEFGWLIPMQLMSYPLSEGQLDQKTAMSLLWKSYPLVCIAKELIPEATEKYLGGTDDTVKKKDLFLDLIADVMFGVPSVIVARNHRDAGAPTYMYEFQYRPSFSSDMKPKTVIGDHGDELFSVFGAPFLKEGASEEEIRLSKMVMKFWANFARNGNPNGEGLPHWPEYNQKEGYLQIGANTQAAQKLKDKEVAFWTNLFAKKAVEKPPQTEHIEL
Method: as §1

Compound: O=C(Nc1ccn([C@@H]2O[C@H](CO)[C@@H](O)C2(F)F)c(=O)n1)OCc1ccccc1 [Cbz-dFdC, 4-N-carbobenzoxy-gemcitabine]
- intracellular concentration (cell uptake) [1]: low
- stability towards CES2 in rats ([2]; concluded from tissue-specific CES expression, rats): relatively stable in CES2
- degradation in rat intestine homogenate and S9 ([2]; rat intestine homogenate and S9, dFdC not generated): essentially non-degradable
- microsomal CLint [3]: 72700 µL/min/mg
